For the experiment, the system named is Met e 1. In words: ELISA of Met e 1-specific IgG1 and IgG2a in serum of BALB/c mice immunized with mimotope-KLH conjugates. It counts as in vivo, Metapenaeus ensis. The conditions noted are these: KLH conjugate in BALB/c mice; compared with the Met e 1 epitope (a.a. 251-270) positive control. How it is done:
One mimotope peptide was chosen from each of clusters 1-6 (Table 3) and commercially synthesized (Genscript). The mimotopes were conjugated to keyhole limpet hemocyanin (KLH) using Imject EDC mcKLH Spin Kit (Thermo Scientific) according to manufacturer's instructions. Female BALB/c mice (n=4; 5-6 weeks) were immunized subcutaneously with a mimotope conjugate (50 μg in 200 μl PBS) emulsified in Complete Freund's adjuvant on day 0 and Incomplete Freund's adjuvant on days 14 and 21. Blood samples were collected on day 28 from tail vein of the mice. A Der p 1 mimotope (KGIPNTKAP) (Szalai et al., Mot Immunol, 2008; 45, 1308-1317) and an IgE epitope of Met e 1 ([…]; a.a. 251-270) were also included as negative and positive controls, respectively. All animal protocols were approved by the Animal Experimentation Ethics Committee, CUHK, in accordance with the Department of Health (Government of Hong Kong Special Administrative Region, HKSAR) guidelines in Care and Use of Animals. All experiments were performed under licenses granted from the HKSAR Government.
ELISA was performed as previously described (Wai et al., PLoS One, 2014; 9, e111649) to detect Met e 1-specific IgG antibodies. […] 100 μl of 0.1M sulfuric acid was added to each well to stop the reaction after 10 min of incubation and the optical density at 450 nm was determined using microplate reader (BioRad Model 680). […]

In the case of “GTKLQHFRQ (Synthetic Cluster 4 mimotope) [Cluster 4 mimotope of Met e 1; selected for in vivo verification]”, the “capacity to induce Met e 1-specific antibodies” value is reported as “lower capacity”.

Source of the values: patent US9920100B2, “Mimotopes of tropomyosin for use in immunotherapy for shellfish and/or arthropod allergy” (THE REGENTS OF THE UNIVERSITY OF CALIFORNIA, priority 2016, dated 2018).
